Test results taken from patent publication US10888500B2, “Particle size stabilization process” (INKE, S.A., priority 2016, dated 2021).

Columns and labels:
[1] = between pH 1 and 14; cited from earlier work
[2] = Determination of presence of aggregates / agglomerated material (Malvern); format: physicochemical; conditions: after the curing step
From the text: (§1) Determination of Presence of Aggregates (MALVERN).

[3] = Amorphous content by Dynamic Vapor Sorption Analysis (DVS), water uptake method; format: physicochemical; conditions: after the curing step
Protocol: Dynamic Vapor Sorption Analysis (DVS):
The experiments were performed in a Mettler Toledo TGA/DSC 1 LF instrument equipped with a LF SDTA FRS2 sensor and coupled with a Modular Humidity Generator MHG 32. The samples were weighted into 150 μL platinum crucibles. Data collection and evaluation was done with STARe software. A water uptake method was used to determine the amorphous content. In this method, the relative mass difference at a specific relative humidity (20%) prior to and post humidity-induced crystallization was compared. Assuming no solvate or hydrate formation, the difference in uptake between partially amorphous and recrystallized material is directly proportional to the initial amount of amorphous material in the sample. A purely amorphous sample (reference sample) was used as amorphous standard. The water uptake of a sample is proportional to the amount of amorphous content present in the sample.

[4] = for D50 determined by LDS after curing / D90 determined by LDS after curing: after curing at 130° C., storage at 25° C. for (at least) 1 month
Protocol: Laser Diffraction Spectrometry (LDS) was used to determine the Particle Size Distribution (PSD) and the determination of the presence of aggregates.
Particle Size Distribution ([…]).
The particle size distribution of sample was measured by using a Helos particle size analyser using a R1 lense with an Aspiros feeder using a dispersing dry process on 50 mg of glycopyrronium salt product.
as §1
The presence of aggregates in a sample was determined by using a Malvern Mastersizer 2000 instrument. For example: 100 mg of glycopyrronium salt were mixed with 5 ml of a previously prepared saturated solution of glycopyrronium salt in n-heptane containing 0.2 wt. % of Span-20. Ultrasonic treatment of the samples was performed for 2 minutes.

[5] = after curing at 70° C., vacuum, 6 hours, FIG. 1: after storage at 25° C. for 1 month

Compound	ionization [1]	agglomerated material observed [2]	amorphous content as determined by DVS [3] [wt. %]	D50 after the curing step (agglomerated material, FIG. 1) [4, 5] [μm]	D90 after the curing step (agglomerated material, FIG. 1) [4, 5] [μm]	amorphous content as determined by DVS (in words) [3]	D50 determined by LDS after curing [4] [μm]	D90 determined by LDS after curing [4] [μm]
C[N+]1(C)CC[C@@H](OC(=O)[C@@](O)(c2ccccc2)C2CCCC2)C1 (racemic) [Glycopyrronium bromide, (3RS)-3-[(2SR)-(2-cyclopentyl-2-hydroxy-2-phenylacetyl)oxy]-1,1-dimethylpyrrolidinium bromide]	completely ionized							
glycopyrronium bromide [Example 1, reference compound]		significant amount of agglomerated material	1.8	60.27	888.59			
glycopyrronium bromide [Example 2]		no agglomerated material was observed				No amorphous content was detected	1.45	3.39
glycopyrronium bromide [Example 3]		no agglomerated material was observed				No amorphous content was detected	1.46	3.36
glycopyrronium bromide [Example 4]		no agglomerated material was observed				No amorphous content was detected	1.45	3.26
glycopyrronium bromide [Example 5]		no agglomerated material was observed				No amorphous content was detected	1.43	3.28
glycopyrronium bromide [Example 6]		no agglomerated material was observed				No amorphous content was detected	1.48	3.11
